One data set has as its target T1, adenosine A1 receptors (Homo sapiens, UniProt P30542).
T1 construct: expressed in transfected cells; host or cells: CHO (Chinese Hamster Ovary)
T1 sequence (P30542 1-326): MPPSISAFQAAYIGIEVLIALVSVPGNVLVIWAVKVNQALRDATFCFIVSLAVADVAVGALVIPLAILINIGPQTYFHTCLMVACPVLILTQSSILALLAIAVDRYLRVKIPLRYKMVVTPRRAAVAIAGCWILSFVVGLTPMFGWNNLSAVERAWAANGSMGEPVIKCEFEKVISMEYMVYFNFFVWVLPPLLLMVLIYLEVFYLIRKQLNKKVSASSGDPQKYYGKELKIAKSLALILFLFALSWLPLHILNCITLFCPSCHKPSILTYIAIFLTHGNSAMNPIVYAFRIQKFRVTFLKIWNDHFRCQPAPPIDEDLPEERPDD
Kind of data set: Adenosine agonism indirectly by way of gene expression (luciferase test), A1 cells. It is filed as cell-based. Conditions: percent following prestimulation of adenylate cyclase with 1 μ molar forskolin (=100%), agonists give <100%. From the text:
(§1) Cells of the CHO (Chinese Hamster Ovary) permanent cell line are transfected stably with the cDNA for the adenosine receptor subtypes A1, A2a and A2b. The adenosine A1 receptors are coupled to the adenylate cyclase by way of Gi proteins, while the adenosine A2a and A2b receptors are coupled by way of Gs proteins. In correspondence with this, the formation of cAMP in the cell is inhibited or stimulated, respectively. After that, expression of the luciferase is modulated by way of a cAMP-dependent promoter. The luciferase test is optimized, with the aim of high sensitivity and reproducibility, low variance and good suitability for implementation on a robot system, by varying several test parameters, such as cell density, duration of the growth phase and the test incubation, forskolin concentration and medium composition. The following test protocol is used for pharmacologically characterizing cells and for the robot-assisted substance test screening:
(§2) The stock cultures are grown, at 37° C. and under 5% CO2, in DMEM/F12 medium containing 10% FCS (foetal calf serum) and in each case split 1:10 after 2–3 days. The test cultures are seeded in 384-well plates at the rate of from 1 000 to 3 000 cells per well and grown at 37° C. for approx. 48 hours. […] After that, 35 μl of a solution which is composed of 50% lysis reagent (30 mM disodium hydrogenphosphate, 10% glycerol, 3% TritonX100, 25 mM TrisHCl, 2 mM dithiothreitol (DTT), pH 7.8) and 50% luciferase substrate solution (2.5 mM ATP, 0.5 mM luciferin, 0.1 mM coenzyme A, 10 mM tricine, 1.35 mM magnesium sulphate, 15 mM DTT, pH 7.8) are added to the test cultures, the plates are shaken for approx. 1 minute and the luciferase activity is measured using a camera system.
(§3) The table gives the % values of the corresponding reference stimulus. The measured values for the A2a and A2b receptors are values in percent of the maximum stimulation achieved by NECA; the measured values for the A1 receptor are values in percent following direct prestimulation of the adenylate cyclase with 1μ molar forskolin (corresponds to the 100% value).

A further data set has as its target T2, adenosine A2a receptors (Homo sapiens, UniProt P29274).
T2 construct: expressed in transfected cells; host or cells: CHO (Chinese Hamster Ovary)
Kind of data set: Adenosine agonism indirectly by way of gene expression (luciferase test), A2a cells. Conditions: percent of the maximum stimulation achieved by NECA. It is filed as cell-based.
Text: as §1, §2, §3

The next data set has as its target T3, adenosine A2b receptors (Homo sapiens, UniProt P29275).
T3 construct: expressed in transfected cells; host or cells: CHO (Chinese Hamster Ovary)
T3 sequence (P29275 1-332): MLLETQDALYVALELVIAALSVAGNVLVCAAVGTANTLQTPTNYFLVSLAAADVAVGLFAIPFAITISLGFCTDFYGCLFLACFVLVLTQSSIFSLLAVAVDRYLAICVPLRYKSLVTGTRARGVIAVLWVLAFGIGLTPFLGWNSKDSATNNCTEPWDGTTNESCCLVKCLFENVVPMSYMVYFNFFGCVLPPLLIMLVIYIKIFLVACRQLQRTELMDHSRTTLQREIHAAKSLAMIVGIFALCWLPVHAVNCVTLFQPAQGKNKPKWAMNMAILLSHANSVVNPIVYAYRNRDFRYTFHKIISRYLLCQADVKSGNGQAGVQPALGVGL
Briefly: Adenosine agonism indirectly by way of gene expression (luciferase test), A2b cells. Conditions: percent of the maximum stimulation achieved by NECA. It is filed as cell-based.
Text: as §1, §2, §3

A short description of data set [1]: Pharmacokinetic investigations, mouse. The data set is classed as in vivo, mice. Conditions: plasma, po, 1 mg/kg p.o., read-out: Bioavailability following oral administration. The procedure: (§4) Pharmacokinetic data were determined after administering various substances i.v. or p.o. as solutions to mice, rats and dogs. For this, blood samples were collected up to 24 hours after administration. The concentrations of the unaltered substance were determined by bioanalytical methods (HPLC or HPLC-MS) in the plasma samples which were obtained from the blood samples. Pharmacokinetic parameters were subsequently ascertained from the plasma concentration time courses which had been obtained in this way. The following Table 2 gives the bioavailability in the different species.

The nature of data set [2]: Pharmacokinetic investigations, rat. The data set is classed as in vivo, rats. The conditions noted are these: plasma, po, 1 mg/kg p.o., read-out: Bioavailability following oral administration. The method, then: as §4
Data set [3] in a line: Pharmacokinetic investigations, dog. It is filed as in vivo, dogs. Conditions: plasma, po, 1 mg/kg p.o., read-out: Bioavailability following oral administration. The method, then:
as §4

Molecules are shown by their SMILES.

T2 sequence (P29274 whole entry): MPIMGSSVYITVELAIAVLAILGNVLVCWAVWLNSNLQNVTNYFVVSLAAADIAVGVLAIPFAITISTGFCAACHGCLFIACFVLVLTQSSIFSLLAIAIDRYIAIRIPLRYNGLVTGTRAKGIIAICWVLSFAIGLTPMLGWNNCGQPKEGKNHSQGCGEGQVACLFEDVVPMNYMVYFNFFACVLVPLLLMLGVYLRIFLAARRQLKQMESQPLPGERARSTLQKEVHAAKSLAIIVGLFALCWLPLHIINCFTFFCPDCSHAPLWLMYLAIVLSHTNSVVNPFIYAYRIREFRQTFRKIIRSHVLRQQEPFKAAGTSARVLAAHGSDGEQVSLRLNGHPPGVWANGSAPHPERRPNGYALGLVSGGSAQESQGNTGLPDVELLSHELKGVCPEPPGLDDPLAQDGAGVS

For `CC(=O)Nc1ccc(-c2c(C#N)c(N)nc(SCc3ccccn3)c2C#N)cc1` [Example 1, N-(4-{2-Amino-3,5-dicyano-6-[(2-pyridinylmethyl)sulphanyl]-4-pyridinyl}-phenyl)acetamide], the “Stimulation of adenosine receptors, A1, % of the reference stimulus” value worked out at 44% at adenosine A1 receptors (0.3 nmol compound), 9% on adenosine A1 receptors (1 nmol compound) and 5% on adenosine A1 receptors (10 nmol compound). Also, the “Stimulation of adenosine receptors, A2a, % of the reference stimulus” value at adenosine A2a receptors (0.3 nmol compound) was determined as 1%; on adenosine A2a receptors (1 nmol compound) it was 24%; on adenosine A2a receptors (10 nmol compound) it was 57%. In addition, the “Stimulation of adenosine receptors, A2b, % of the reference stimulus” value is reported as 29% on adenosine A2b receptors (0.3 nmol compound), 64% at adenosine A2b receptors (1 nmol compound) and 88% on adenosine A2b receptors (10 nmol compound). The bioavailability came to 22.1% in data set [1], 4.6% in data set [2] and 48.2% in data set [3].

Values taken from patent US7045631B2, “Substituted 2-thio-3, 5-dicyano-4-phenyl-6-aminopyridines and their use as adenosine receptor-selective ligands” (Bayer Aktiengesellschaft, priority 2001, dated 2006).
